Assay results taken from ChEMBL document CHEMBL1140567, “2-Aryl benzimidazoles featuring alkyl-linked pendant alcohols and amines as inhibitors of checkpoint kinase Chk2” (Bioorg Med Chem Lett, 2007).
≈ marks a conversion by molar mass, not a printed value.

Tests used:
[1] = Solubility in stimulated gastric fluid at pH 2 umol after 3 days; assay type: physicochemical; details: simulated gastric fluid
[2] = Solubility in stimulated intestinal fluid at pH 7 after 3 days; assay type: physicochemical; details: simulated intestinal fluid

| solubility at 72 h [1] | solubility at 72 h [2] | Compound |
| --- | --- | --- |
| > 400 µM | > 400 µM | NC(=O)c1ccc2[nH]c(-c3ccc(OCC4CCN(Cc5ccccc5)CC4)cc3)nc2c1 |
| > 400 µM | 139 µM (≈ 46.9 µg/mL) | NC(=O)c1ccc2[nH]c(-c3ccc(OC4CCC(O)C4)cc3)nc2c1 (stereo not given) |
| > 400 µM | < 1 µM | COc1ccc(CN2CCC(CCOc3ccc(-c4nc5cc(C(N)=O)ccc5[nH]4)cc3)CC2)cc1 |
| > 400 µM | > 400 µM | CN(C)CCCOc1ccc(-c2nc3cc(C(N)=O)ccc3[nH]2)cc1 |
| > 400 µM | 267 µM (≈ 118 µg/mL) | NC(=O)c1ccc2[nH]c(-c3ccc(OCC4CCCN(Cc5ccccc5)C4)cc3)nc2c1 (stereo not given) |
| 28 µM (≈ 13.1 µg/mL) | 18 µM (≈ 8.43 µg/mL) | NC(=O)c1ccc2[nH]c(-c3ccc(OCCC4CCCCN4C(=O)c4ccccc4)cc3)nc2c1 (stereo not given) |
| > 400 µM | 193 µM (≈ 78.5 µg/mL) | CC(=O)N1CCCCC1CCOc1ccc(-c2nc3cc(C(N)=O)ccc3[nH]2)cc1 (stereo not given) |
| 185 µM (≈ 57.6 µg/mL) | 7 µM (≈ 2.18 µg/mL) | NC(=O)c1ccc2[nH]c(-c3ccc(OCCCO)cc3)nc2c1 |
| 3 µM (≈ 1.41 µg/mL) | 3 µM (≈ 1.41 µg/mL) | NC(=O)c1ccc2[nH]c(-c3ccc(OCCC4CCN(C(=O)c5ccccc5)CC4)cc3)nc2c1 |
| > 400 µM | 155 µM (≈ 70.5 µg/mL) | NC(=O)c1ccc2[nH]c(-c3ccc(OCCC4CCCCN4Cc4ccccc4)cc3)nc2c1 (stereo not given) |
| > 400 µM | > 400 µM | NC(=O)c1ccc2[nH]c(-c3ccc(OCCN4CCCCC4)cc3)nc2c1 |
| > 400 µM | > 400 µM | NC(=O)c1ccc2[nH]c(-c3ccc(OCCCN4CCCCC4)cc3)nc2c1 |
| > 400 µM | 115 µM (≈ 56.2 µg/mL) | NC(=O)c1ccc2[nH]c(-c3ccc(OCCC4CCCCN4Cc4ccc(Cl)cc4)cc3)nc2c1 (stereo not given) |
| > 400 µM | > 400 µM | NC(=O)c1ccc2[nH]c(-c3ccc(OCC4CCNCC4)cc3)nc2c1 |
| > 400 µM | > 400 µM | NC(=O)c1ccc2[nH]c(-c3ccc(OCCO)cc3)nc2c1 |
| 87 µM (≈ 35.4 µg/mL) | 2 µM (≈ 0.813 µg/mL) | CC(=O)N1CCC(CCOc2ccc(-c3nc4cc(C(N)=O)ccc4[nH]3)cc2)CC1 |
| 179 µM (≈ 87.5 µg/mL) | 2 µM (≈ 0.978 µg/mL) | NC(=O)c1ccc2[nH]c(-c3ccc(OCCC4CCN(Cc5ccc(Cl)cc5)CC4)cc3)nc2c1 |
| > 400 µM | 84 µM (≈ 40.7 µg/mL) | COc1ccc(CN2CCCCC2CCOc2ccc(-c3nc4cc(C(N)=O)ccc4[nH]3)cc2)cc1 (stereo not given) |
| 84 µM (≈ 39.4 µg/mL) | 3 µM (≈ 1.41 µg/mL) | Cc1ccc(CN2CCC(CCOc3ccc(-c4nc5cc(C(N)=O)ccc5[nH]4)cc3)CC2)cc1 |
| > 400 µM | 97 µM (≈ 45.5 µg/mL) | Cc1ccc(CN2CCCCC2CCOc2ccc(-c3nc4cc(C(N)=O)ccc4[nH]3)cc2)cc1 (stereo not given) |
| 39 µM (≈ 20.4 µg/mL) | 229 µM (≈ 120 µg/mL) | NC(=O)c1ccc2[nH]c(-c3ccc(OCCC4CCCCN4Cc4ccc(Cl)c(Cl)c4)cc3)nc2c1 (stereo not given) |
| > 400 µM | > 400 µM | NC(=O)c1ccc2[nH]c(-c3ccc(OC4CCCNC4)cc3)nc2c1 (stereo not given) |
| 110 µM (≈ 50 µg/mL) | 5 µM (≈ 2.27 µg/mL) | NC(=O)c1ccc2[nH]c(-c3ccc(OCCC4CCN(Cc5ccccc5)CC4)cc3)nc2c1 |
| > 400 µM | > 400 µM | CN1CCC(Oc2ccc(-c3nc4cc(C(N)=O)ccc4[nH]3)cc2)CC1 |
| 13 µM (≈ 6.81 µg/mL) | 15 µM (≈ 7.85 µg/mL) | NC(=O)c1ccc2[nH]c(-c3ccc(OCCC4CCN(Cc5ccc(Cl)c(Cl)c5)CC4)cc3)nc2c1 |
